From PMC5632533, “Mechanisms of action and in vivo antibacterial efficacy assessment of five novel hybrid peptides derived from Indolicidin and Ranalexin against Streptococcus pneumoniae” (PeerJ, 2017)

System: ICR (CD-1) mice
Assay: In vivo toxicity in mice (SC, IN, IP routes)
Design: Aspartate aminotransferase, AST / Alanine transaminase, ALT / Alkaline phosphatase, ALP / Creatinine / Urea / Total bilirubin: unit not given here
Settings: for Eosinophil / Erythrocytes, RBC / Granulocytes / Hematocrit, HCT / Hemoglobin Hgb / Lymphocytes / Mean corpuscular haemoglobin concentration, MCHC / Mean corpuscular haemoglobin, MCH / Monocytes / White blood cells, WBC / platelet Counts, PLT / Mean corpuscular volume, MCV / Alanine transaminase, ALT / Alkaline phosphatase, ALP / Aspartate aminotransferase, AST / Creatinine / Total bilirubin / Urea: 3 doses (1hr, 12hr, 24hr), RN7-IN9, RN7-IN6 10 mg/kg, day 7, mean±SD, 4 mice; for maximum IP dose at which no signs of stress or abnormal behavior were evident (non-toxic dose): doses at 1 h, 12 h, 24 h, no death up to seven days; for Alanine transaminase, ALT / Alkaline phosphatase, ALP / Aspartate aminotransferase, AST / Creatinine / Total bilirubin / Urea: serum
Protocol: In this study, 4-week old male, pathogen free ICR (CD-1) mice were purchased from InVivos (Lim Chu Kang, Singapore) and used to assess the in vivo toxicity and antibacterial efficacy of the novel peptides, as these animals are by far the most commonly used model for the study of pneumococcal disease ([Chiavolini, Pozzi & Ricci, 2008]). The mice were kept in ventilated polycarbonate cages (12 h light/dark cycle, 20 ± 2 °C and 55% relative humidity). All mice were familiarized for seven days before any experimental procedure and were given unlimited pellets and water ad libitum. All animal experimentations were conducted according to the guidelines approved by Faculty of Medicine Institutional Animal Care and Use Committee (FOM IACUC), University of Malaya (ethics Reference no. : 2013-07-15/MMBTR/SDS).
In order to evaluate the possible toxic effects correlated to peptides administered in mice, four hybrid peptides RN7-IN10, RN7-IN9, RN7-IN8 and RN7-IN6 were chosen for in vivo toxicity assessment, due to their promising in vitro antibacterial activity ([Jindal et al., 2015]). Mice were separated into four groups (each with four mice) and were injected with respective peptides at 1 h, 12 h, and 24 h (three-dose regimen) via IP, SC, and IN administration routes. The hybrid peptides were first administered at high doses (100 mg/kg for IP route, 100 mg/kg for SC routes and 20 mg/kg for IN route). Any abnormal behavior was recorded and survival of mice was noted as well. In case adverse effects such as high physical stress, severe lethargy, physical inactiveness, and/or death were detected, lower graded doses were given. All the administered mice were monitored for seven days or until death occurred. At day seven post administration, all animals were sacrificed and blood and organs were collected. Untreated mice were used as a control group.
Mice used to evaluate the in vivo toxicity and antibacterial activity of the hybrid peptides using the subcutaneous (SC) and intranasal (IN) administration routes, were anesthetized using a combination of a standard dose of xylazine (ilium xylazil-20, 10 mg/kg) and ketamine (Narketan®-10, 100 mg/kg) through intraperitoneal (IP) injection. After seven days of treatment, the in vivo toxicity and antibacterial efficacy experiments were ended and the surviving mice were anesthetized. Blood samples for Hematological and biochemical analysis were collected via cardiac puncture using a 25G syringe (BD bioscience, San Jose, CA, USA). Whole blood for heamatological analysis was collected in 500 µl dipotassium EDTA microtainer tubes (BD Bioscience, USA). About 500 µl of blood collected an eppedorff tube and centrifuged at 8000 rpm for 5 min and then the serum was transferred into a new 1.5 ml tube for biochemistry analysis. The mice were then euthanized by cervical dislocation, dissected and the following organs were collected for histopathology evaluation: lung, kidney, brain, liver and spleen.
For whole blood analysis, the parameters were number of red cells (RBC), number of white cells (WBC), lymphocytes, monocytes, eosinophil, granulocytes, haemoglobin (Hgb), mean corpuscular volume (MCV), hematocrit (HCT), platelet Counts (PLT), Mean corpuscular haemoglobin (MCH) and corpuscular haemoglobin concentration (MCHC). For biochemistry analysis, the parameters were alanine transaminase (ALT), creatinine, alkaline phosphatase (ALP), aspartate aminotransferase (AST), total bilirubin and urea.
The following organs were collected from all the dissected mice: lung, kidney, brain, spleen, and liver. All tissues were fixed in 10% (v/v) buffered formalin and processed for paraffin embedding. Hematoxylin–eosin (HE) was used to stain the histological sections at the histopathology laboratory, Veterinary Laboratory Service Unit, University Putra Malaysia (UPM).

[1] = IN, head doses: RN7-IN10, RN7-IN8 20 mg/kg
[2] = SC, head doses: RN7-IN10, RN7-IN8 20 mg/kg

FLGGLIKKWPWWPWRR-NH2 [RN7-IN9, hybrid peptide of ranalexin (residues 1-7) and indolicidin (residues 5-13)]
Eosinophil [1]: 3.2±1.2% | Erythrocytes, RBC [1]: 9.36±0.9 10^6/mm^3 | Granulocytes [1]: 56.2±10.81% | Hematocrit, HCT [1]: 46.82±4.23% | Hemoglobin Hgb [1]: 14.9 ± 1.32 g/dL | Lymphocytes [1]: 41.27±10.56% | Mean corpuscular haemoglobin concentration, MCHC [1]: 31.85 ± 0.17 g/dL | Mean corpuscular haemoglobin, MCH [1]: 15.95 ± 0.33 pg | Monocytes [1]: 2.52±0.27% | White blood cells, WBC [1]: 5.2±2.35 10^3/mm^3 | platelet Counts, PLT [1]: 656.75±76.9 10^3/mm^3 | Eosinophil (IP, RN7-IN10, RN7-IN8 20 mg/kg): 3.95±2.56% | Erythrocytes, RBC (IP, RN7-IN10, RN7-IN8 20 mg/kg): 8.06±1.04 10^6/mm^3 | Granulocytes (IP, RN7-IN10, RN7-IN8 20 mg/kg): 53.02±4.07% | Hematocrit, HCT (IP, RN7-IN10, RN7-IN8 20 mg/kg): 41.42±5.25% | Hemoglobin Hgb (IP, RN7-IN10, RN7-IN8 20 mg/kg): 13.9 ± 1.67 g/dL | Mean corpuscular haemoglobin concentration, MCHC (IP, RN7-IN10, RN7-IN8 20 mg/kg): 33.63 ± 0.34 g/dL | Mean corpuscular haemoglobin, MCH (IP, RN7-IN10, RN7-IN8 20 mg/kg): 17.25 ± 0.78 pg | Mean corpuscular volume, MCV (IP, RN7-IN10, RN7-IN8 20 mg/kg): 51.5±2.64 µm^3 | Monocytes (IP, RN7-IN10, RN7-IN8 20 mg/kg): 2.47±0.25% | White blood cells, WBC (IP, RN7-IN10, RN7-IN8 20 mg/kg): 3.7±1.54 10^3/mm^3 | platelet Counts, PLT (IP, RN7-IN10, RN7-IN8 20 mg/kg): 674±118.72 10^3/mm^3 | maximum IP dose at which no signs of stress or abnormal behavior were evident (non-toxic dose) (IP): 10 mg/kg | Eosinophil [2]: 2.77±0.54% | Erythrocytes, RBC [2]: 9.22±0.98 10^6/mm^3 | Granulocytes [2]: 55.55±4.52% | Hematocrit, HCT [2]: 46.15±5.19% | Hemoglobin Hgb [2]: 15.75 ± 1.4 g/dL | Lymphocytes [2]: 46.47±5.48% | Mean corpuscular haemoglobin concentration, MCHC [2]: 34.2 ± 1.37 g/dL | Mean corpuscular haemoglobin, MCH [2]: 17.1 ± 0.53 pg | Mean corpuscular volume, MCV [2]: 51±1.82 µm^3 | Monocytes [2]: 1.95±0.1% | White blood cells, WBC [2]: 4.32±0.55 10^3/mm^3 | platelet Counts, PLT [2]: 449.75±100.23 10^3/mm^3 | Alanine transaminase, ALT [1]: 41.22±15.75 | Alkaline phosphatase, ALP [1]: 127.75±6.07 | Aspartate aminotransferase, AST [1]: 141.2±23.08 | Creatinine [1]: 37.66±1.26 | Total bilirubin [1]: 2.01±0.27 | Urea [1]: 9.6±1.02 | Alanine transaminase, ALT (IP, RN7-IN10, RN7-IN8 20 mg/kg): 51.54±5.83 | Aspartate aminotransferase, AST (IP, RN7-IN10, RN7-IN8 20 mg/kg): 172.33±26.35 | Creatinine (IP, RN7-IN10, RN7-IN8 20 mg/kg): 37.3±3.51 | Total bilirubin (IP, RN7-IN10, RN7-IN8 20 mg/kg): 1.9±0.02 | Urea (IP, RN7-IN10, RN7-IN8 20 mg/kg): 10.56±5.2 | Alanine transaminase, ALT [2]: 43.17±13.81 | Alkaline phosphatase, ALP [2]: 131.25±19.7 | Aspartate aminotransferase, AST [2]: 188.33±11.22 | Creatinine [2]: 35±1.27 | Total bilirubin [2]: 2.2±0.13 | Urea [2]: 8.84±1.04

FLGGLIKWKWPWWPWRR-NH2 [RN7-IN10, hybrid peptide of ranalexin (residues 1-7) and indolicidin (residues 4-13)]
Eosinophil [1]: 2.7±0.97% | Erythrocytes, RBC [1]: 9.62±0.79 10^6/mm^3 | Granulocytes [1]: 66.6±21.64% | Hematocrit, HCT [1]: 47.95±3.18% | Hemoglobin Hgb [1]: 15.47 ± 1.07 g/dL | Lymphocytes [1]: 58.5±7.53% | Mean corpuscular haemoglobin concentration, MCHC [1]: 28.3 ± 8.15 g/dL | Mean corpuscular haemoglobin, MCH [1]: 20 ± 7.87 pg | Mean corpuscular volume, MCV [1]: 50.75±1.7 µm^3 | Monocytes [1]: 2.2±0.37% | White blood cells, WBC [1]: 5.2±1.44 10^3/mm^3 | platelet Counts, PLT [1]: 619.5±100.42 10^3/mm^3 | Eosinophil (IP, RN7-IN10, RN7-IN8 20 mg/kg): 2.23±1.61% | Erythrocytes, RBC (IP, RN7-IN10, RN7-IN8 20 mg/kg): 9.16±0.92 10^6/mm^3 | Granulocytes (IP, RN7-IN10, RN7-IN8 20 mg/kg): 46.27±16.41% | Hematocrit, HCT (IP, RN7-IN10, RN7-IN8 20 mg/kg): 47.67±5.6% | Hemoglobin Hgb (IP, RN7-IN10, RN7-IN8 20 mg/kg): 15.85 ± 1.27 g/dL | Lymphocytes (IP, RN7-IN10, RN7-IN8 20 mg/kg): 51.03±16.69% | Mean corpuscular haemoglobin concentration, MCHC (IP, RN7-IN10, RN7-IN8 20 mg/kg): 33.85 ± 0.60 g/dL | Mean corpuscular haemoglobin, MCH (IP, RN7-IN10, RN7-IN8 20 mg/kg): 17.6 ± 0.46 pg | Mean corpuscular volume, MCV (IP, RN7-IN10, RN7-IN8 20 mg/kg): 50.75±2.06 µm^3 | Monocytes (IP, RN7-IN10, RN7-IN8 20 mg/kg): 2.8±0.5% | White blood cells, WBC (IP, RN7-IN10, RN7-IN8 20 mg/kg): 4.2±0.55 10^3/mm^3 | platelet Counts, PLT (IP, RN7-IN10, RN7-IN8 20 mg/kg): 535±150.11 10^3/mm^3 | maximum IP dose at which no signs of stress or abnormal behavior were evident (non-toxic dose) (IP): 20 mg/kg | Eosinophil [2]: 2.82±0.25% | Erythrocytes, RBC [2]: 8.04±1.18 10^6/mm^3 | Hematocrit, HCT [2]: 41.5±3.7% | Hemoglobin Hgb [2]: 13.75 ± 1.77 g/dL | Lymphocytes [2]: 52.2±3.3% | Mean corpuscular haemoglobin concentration, MCHC [2]: 34.45 ± 1.35 g/dL | Mean corpuscular haemoglobin, MCH [2]: 17.08 ± 0.4 pg | Mean corpuscular volume, MCV [2]: 50±2.16 µm^3 | Monocytes [2]: 2.2±0.28% | White blood cells, WBC [2]: 3.8±0.2 10^3/mm^3 | platelet Counts, PLT [2]: 568.75±81.73 10^3/mm^3 | Alanine transaminase, ALT [1]: 66.9±17.02 | Alkaline phosphatase, ALP [1]: 133.3±10.1 | Aspartate aminotransferase, AST [1]: 172±8.78 | Creatinine [1]: 40.94±0.83 | Total bilirubin [1]: 2.15±0.14 | Urea [1]: 9.3±1.68 | Alanine transaminase, ALT (IP, RN7-IN10, RN7-IN8 20 mg/kg): 52.76±12.22 | Alkaline phosphatase, ALP (IP, RN7-IN10, RN7-IN8 20 mg/kg): 124.33±10.6 | Aspartate aminotransferase, AST (IP, RN7-IN10, RN7-IN8 20 mg/kg): 181.66±38.27 | Creatinine (IP, RN7-IN10, RN7-IN8 20 mg/kg): 38.1±6.97 | Total bilirubin (IP, RN7-IN10, RN7-IN8 20 mg/kg): 1.82±0.03 | Urea (IP, RN7-IN10, RN7-IN8 20 mg/kg): 9.6±2.11 | Alanine transaminase, ALT [2]: 51.25±11.9 | Aspartate aminotransferase, AST [2]: 175±25.41 | Creatinine [2]: 37.8±3.43 | Total bilirubin [2]: 2.1±0.35 | Urea [2]: 9.2±0.8
